This note sets out measurements from article PMC7618597, “Dual Nurr1/RXR agonism of valerenic acid and synthetic mimetics enables dimer-selective Nurr1 modulation” (ACS medicinal chemistry letters, 2025).

In experiment [1] the target is T1, full-length Nurr1 monomer (NBRE) (Homo sapiens, UniProt P43354).
T1 construct: full-length human nuclear receptor Nurr1 encoded by pcDNA3.1 -hNurr1-NE; host or cells: HEK293T
Description: Full-length Nurr1 reporter gene assay, monomer response element NBRE. It is filed as cell-based. How it is done:
Based on these findings, we next determined the effects of 2 and 3 on Nurr1 activity in a cellular setting using reporter constructs for the NGFI-B response element (NBRE), the Nur response element (NurRE), and the direct repeat 5 (DR5)[36]. All three response elements are robustly activated by common Nurr1 agonists[4],[31]. […]
modified Eagle’s medium (DMEM), high glucose supplemented with 10% fetal calf serum (FCS), sodium pyruvate (1 mM), penicillin (100 U/mL), and streptomycin (100 μg/mL) at 37 °C and 5% CO2 and seeded in 96-well plates (3×10^4 cells/well). […] Five hours after transfection, the cells were incubated with the test compounds in Opti-MEM supplemented with penicillin (100 U/mL), streptomycin (100 μg/mL), and 0.1% DMSO for 15 h before luciferase activity was measured using the Dual -Glo Luciferase Assay System (Promega) according to the manufacturer’s protocol on a Tecan Spark l uminometer (Tecan Deutschland GmbH, Germany). Firefly luminescence was divided by Renilla luminescence and multiplied by 1000, resulting in relative light units (RLU) to normalize for transfection efficiency and cell growth. […]
Reporter gene assays for full-length human Nurr1 and RXR. […] Firefly luminescence was divided by Renilla luminescence and multiplied by 1000, resulting in relative light units (RLU) to normalize for transfection efficiency and cell growth. […]

Another experiment has as its target T2, RXRα LBD (Homo sapiens, UniProt P19793).
T2 construct: made in house
T2 sequence (P19793 227-458 limits assumed): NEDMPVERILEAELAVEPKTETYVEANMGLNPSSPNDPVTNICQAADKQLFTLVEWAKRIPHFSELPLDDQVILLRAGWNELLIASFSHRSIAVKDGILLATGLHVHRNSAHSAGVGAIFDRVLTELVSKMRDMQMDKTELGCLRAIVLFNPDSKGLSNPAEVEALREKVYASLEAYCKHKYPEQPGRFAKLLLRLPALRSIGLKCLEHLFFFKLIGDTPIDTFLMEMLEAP
Kind of experiment: Isothermal titration calorimetry, recombinant RXRα LBD. In kind it is binding. The note with it: ITC. How it is done: Isothermal titration calorimetry. ITC experiments for ligand binding to Nurr1 and RXR were conducted on an Affinity ITC instrument (TA Instruments, New Castle, DE) at 25 °C with a stirring rate of 75 rpm using recombinantly expressed ligand binding domain proteins as described previously5,6. The respective LBD protein (12–25 μM) in buffer (20 mM Tris pH 7.5, 100 mM NaCl, 5% glycerol) containing 2-4% DMSO was titrated with the test compounds (100-150 μM in the same buffer containing 2-4% DMSO) in 21–26 injections (1 × 1 μL and 20 × 4 to 25 × 4 μL) with an injection interval of 120 s. As control experiments, the test compounds were titrated to the buffer, and the buffer was titrated to the protein under otherwise identical conditions. The heat rates of the compound-Nurr1 LBD titrations were analyzed using NanoAnalyze software (TA Instruments, New Castle, DE) with an independent binding model.

pKd: −log10 of the molar value.

In general, pKd refers to −log10 of the Kd, conventionally taken in molar units.

T1 sequence (P43354 whole entry): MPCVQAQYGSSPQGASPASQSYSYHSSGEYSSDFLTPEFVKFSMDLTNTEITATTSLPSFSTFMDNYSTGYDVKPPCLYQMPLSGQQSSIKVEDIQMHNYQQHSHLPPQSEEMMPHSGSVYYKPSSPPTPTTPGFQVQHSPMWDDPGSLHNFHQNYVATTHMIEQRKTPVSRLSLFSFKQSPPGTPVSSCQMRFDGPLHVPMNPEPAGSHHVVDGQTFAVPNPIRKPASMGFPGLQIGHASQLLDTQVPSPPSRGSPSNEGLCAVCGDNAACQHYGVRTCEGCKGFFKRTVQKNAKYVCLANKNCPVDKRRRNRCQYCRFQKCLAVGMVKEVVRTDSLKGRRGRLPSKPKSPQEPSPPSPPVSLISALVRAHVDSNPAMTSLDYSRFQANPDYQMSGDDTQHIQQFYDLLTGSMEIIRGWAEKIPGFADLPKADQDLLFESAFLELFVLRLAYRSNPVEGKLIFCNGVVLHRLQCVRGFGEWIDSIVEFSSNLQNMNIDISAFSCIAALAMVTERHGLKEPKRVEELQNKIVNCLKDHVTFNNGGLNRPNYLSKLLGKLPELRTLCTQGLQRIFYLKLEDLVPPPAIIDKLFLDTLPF

For the compound `Cc1c(C)n(-c2ccc(CC(=O)O)cc2)c2ccc(F)cc12` [compound 3], in experiment [1], the “activation on NBRE” value is reported as “no activation was detectable”. Moreover, the pKd at RXRα LBD is 6.70.

Take `Cc1c2c(n(-c3ccc(CC(=O)O)cc3)c1C)CCC(F)(F)C2` [compound 2]: the “activation on NBRE” value in experiment [1] is on record as “no activation was detectable”. In addition, the negative-log Kd (pKd) at RXRα LBD was 5.96.
